In US20200071310A1, “N-ARYL PYRAZOLES AS NRF2 REGULATORS” (GLAXOSMITHKLINE INTELLECTUAL PROPERTY DEVELOPMENT LIMITED, priority 2016, published 2020):

Each compound was assayed against T1, Keap1 (321-609) Kelch domain / TAMRA-labeled NRF2 peptide (ETGE motif) (Homo sapiens, UniProt Q14145) (assay: NRF2-Keap1 FP Assay). Settings: Keap1 (321-609) 20 nM, Tamra labeled peptide 8 nM.
T1 construct: the Kelch domain (321-609) of Keap1 is used
Type: binding
Source text: One model for the NRF2-Keap1 interaction is through two binding sites in the Neh2 domain on NRF2. The two sites are referred to as the DLG binding motif (latch domain, uM affinity) and the ETGE binding motif (hinge domain, nM affinity). The Keap1 protein consists of an N-terminal region (NTR), a broad complex, tramtrack, and brick a' brac domain (BTB), an intervening region (IVR), a double glycine repeat domain (DGR or Kelch), and a C-terminal region. The DLG and ETGE motifs of NRF2's Neh2 domain bind to the Kelch domain of Keap1 at different affinities. In the Keap1 Kelch fluorescence polarization (FP) assay, a TAMRA-labeled 16mer peptide (AFFAQLQLDEETGEFL) containing the ETGE motif of NRF2 and the Kelch domain (321-609) of Keap1 is used. The assay determines if a compound interferes with the binding between Keap1 […] and the TAMRA-labeled peptide. Binding of TAMRA-labeled NRF2 peptide to Keap1 (321-609) results in a high FP signal. If a compound interferes with the binding between the peptide and the protein, it will cause the assay signal to decrease. Thus, assay signal is inversely proportional to binding inhibition.
100 nl of 100× compound dose response curves (serial 3-fold dilutions) in DMSO were stamped using an Echo liquid handling system (Labcyte) into 384-well low volume black assay plates (Greiner, #784076), with DMSO in columns 6 and 18. The top concentration of compound was located in columns 1 and 13. Keap1 (321-609) was diluted to 40 nM (2×) in 1× assay buffer (50 mM Tris, pH 8.0, 100 mM NaCl, 5 mM MgCl2, 1 mM DTT, 2 mM CHAPS, and 0.005% BSA) and 5 ul was added using a Multidrop Combi (Thermo Electron Corporation) equipped with a metal tip dispenser to all wells of the compound plate, except column 18. Column 18 received only 5 ul of assay buffer. Immediately, 5 uL of 16 nM (2×) of Tamra labeled peptide (AFFAQLQLDEETGEFL, 21st Century Biochemicals) was added to all wells of the plate. The plates were spun at 500 rpm for 1 min, incubated for 1 hr at room temperature, and read on an Analyst GT (Molecular Devices) equipped with excitation (530/25 nm) and emission (580/10 nm) filters designed for Tamra probes. A 561 nm dichroic mirror was also used in the Analyst. The final assay concentrations of Keap1l (321-609) and Tamra labeled peptide were 20 nM and 8 nM, respectively. Fluorescence measurements, represented as mP, were used in the transformation of the data. Compound activity was calculated based on percent inhibition, normalized against controls in the assay (Control 1 contains the Tamra peptide and Keap1 (321-609) together (0% response) and control 2 contains the Tamra peptide alone (100% response)). Data analysis was handled using the software package Abase XE (Surrey, United Kingdom. The % inhibition values were calculated by the equation:
100−(100*((compound response−average control 2)/(average control 1−average control2))).
For calculation of pIC50s, Abase XE used a four parameter equation.
IC50s<1 nM (+++++), IC50s 1 nM-10 nM (++++), IC50s 10-100 nM (+++), IC50s 100 nM-1 μM (++), IC50s 1-10 μM (+), IC50s>10 μM (−), or were not determined (ND).

T1 sequence (Q14145 321-609): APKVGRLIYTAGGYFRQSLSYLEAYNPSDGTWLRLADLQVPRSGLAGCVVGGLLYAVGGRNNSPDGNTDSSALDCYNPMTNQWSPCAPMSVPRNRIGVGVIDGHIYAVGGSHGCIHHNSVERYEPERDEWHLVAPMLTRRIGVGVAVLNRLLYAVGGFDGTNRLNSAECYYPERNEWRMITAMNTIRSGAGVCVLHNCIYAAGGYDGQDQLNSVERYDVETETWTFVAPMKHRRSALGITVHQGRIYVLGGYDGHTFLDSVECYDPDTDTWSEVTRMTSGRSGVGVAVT

SMILES | EC50 [nM]
CC[C@H]1Cc2ccc(Br)cc2S(=O)(=O)N(Cc2cccc(-n3ncc(C(=O)O)c3[C@@H]3C[C@H]3c3cn(C)nn3)c2)C1 [Example 22, 1-(3-(((S)-8-bromo-4-ethyl-1,1-dioxido-4,5-dihydrobenzo[f][1,2]thiazepin-2(3H)-yl)methyl)phenyl)-5-((1R,2R)-2-(1-methyl-1H-1,2,3-triazol-4-yl)cyclopropyl)-1H-pyrazole-4-carboxylic acid] | < 1
CC[C@@H]1CN(Cc2cc(-n3ncc(C(=O)O)c3C3C[C@H]3c3cn(C)nn3)ccc2C)S(=O)(=O)c2ccccc2O1 (stereo partly shown) [Example 25] | 1 to 10
C[C@H]1Cc2ccc(C(F)(F)F)cc2S(=O)(=O)N([C@H]2CCc3c2cccc3-n2ncc(C(=O)O)c2[C@@H]2C[C@H]2c2cn(C)nn2)C1 [Example 26a, 1-((S)-1-((S)-4-Methyl-1,1-dioxido-8-(trifluoromethyl)-4,5-dihydrobenzo[f][1,2]thiazepin-2(3H)-yl)-2,3-dihydro-1H-inden-4-yl)-5-((1R,2R)-2-(1-methyl-1H-1,2,3-triazol-4-yl)cyclopropyl)-1H-pyrazole-4-carboxylic acid] | 10 to 100
COc1ccccc1S(=O)(=O)N(C)C1CCc2ccc(-n3ncc(C(=O)O)c3[C@@H]3C[C@H]3c3cn(C)nn3)cc21 (stereo partly drawn) [Example 27, 1-(3-(2-methoxy-N-methylphenylsulfonamido)-2,3-dihydro-1H-inden-5-yl)-5-((1R,2R)-2-(1-methyl-1H-1,2,3-triazol-4-yl)cyclopropyl)-1H-pyrazole-4-carboxylic acid] | 1000 to 10000
CC[C@@H]1CN(Cc2cc(-n3ncc(C(=O)O)c3[C@@H]3C[C@H]3c3cn(C)nn3)ccc2C)Cc2ccccc2O1 [Example 28] | 100 to 1000
CC[C@@H]1CN(Cc2cccc(-n3ncc(C(=O)O)c3[C@@H]3C[C@H]3c3cn(CC(F)(F)F)nn3)c2)S(=O)(=O)c2ccccc2O1 [Example 29] | 1 to 10
C[C@H]1Cc2cc(C(F)(F)F)ccc2S(=O)(=O)N(Cc2cccc(-n3ncc(C(=O)O)c3[C@@H]3C[C@H]3c3cnn(C)c3)c2)C1 [Example 30, 1-(3-(((S)-4-Methyl-1,1-dioxido-7-(trifluoromethyl)-4,5-dihydrobenzo[f][1,2]thiazepin-2(3H)-yl)methyl)phenyl)-5-(trans-2-(1-methyl-1H-pyrazol-4-yl)cyclopropyl)-1H-pyrazole-4-carboxylic acid] | 10 to 100
CC[C@@H]1CN(Cc2cccc(-n3ncc(C(=O)O)c3[C@@H]3C[C@H]3c3cnn(C)c3)c2)S(=O)(=O)c2ccccc2O1 [Example 31, 1-(3-(((R)-4-ethyl-1,1-dioxido-3,4-dihydro-2H-benzo[b][1,4,5]oxathiazepin-2-yl)methyl)-phenyl)-5-(trans-2-(1-methyl-1H-pyrazol-4-yl)cyclopropyl)-1H-pyrazole-4-carboxylic acid] | 100 to 1000
C[C@H]1Cc2ccccc2S(=O)(=O)N(Cc2cccc(-n3ncc(C(=O)O)c3[C@@H]3C[C@H]3c3cnn(C)c3)c2)C1 [Example 32, 1-(3-(((S)-4-methyl-1,1-dioxido-4,5-dihydrobenzo[f][1,2]thiazepin-2(3H)-yl)methyl)-phenyl)-5-(trans-2-(1-methyl-1H-pyrazol-4-yl)cyclopropyl)-1H-pyrazole-4-carboxylic acid] | 100 to 1000
C[C@@H]1Cc2cc(C(F)(F)F)ccc2S(=O)(=O)N(Cc2cccc(-n3ncc(C(=O)O)c3[C@@H]3C[C@H]3c3cnn(C)c3)c2)C1 [Example 33, 1-(3-(((R)-4-methyl-1,1-dioxido-7-(trifluoromethyl)-4,5-dihydro-benzo[f][1,2]thiazepin-2(3H)-yl)methyl)phenyl)-5-(trans-2-(1-methyl-1H-pyrazol-4-yl)cyclopropyl)-1H-pyrazole-4-carboxylic acid] | 1000 to 10000
